From patent US20090176817A1, “Method of Treatment of Diarrhea-Predominant Irritable Bowel Syndrome in a Subject” (priority 2005, published 2009)
Where two headings read alike, the source gives them in different places.

What was measured:
[1] = tested on: diarrhea-predominant IBS subjects; assay: Study S241.3.009: interruption of activities assessment; assay type: in vivo, human; conditions: for Percentage of Subjects Who Worsened from Baseline: Interruption of Activities: S241.3.009, 2 mg TID, observed value
Excerpt: (§1) Studies S24 1.3.OO6, S24 1.3.0 1 1, and S24 1.3.009 used the following efficacy measurements: • The subjects answered the following three questions with “yes” or “no” using a phone diary at the end of each week: • a) During the last week, did you experience adequate relief of your IBS symptoms, such as abdominal pain, abdominal discomfort, abnormal bowel habits? • b) During the last week, did you experience adequate relief of your abdominal pain and/or discomfort? • c) During the last week, did you experience adequate relief of your abnormal bowel habits? • The subjects rated the following symptoms using the phone diary at the end of each day: • abdominal pain/discomfort (five-point scale); • stool consistency (seven-point Bristol Stool Scale); • stool frequency (number of bowel movements each day); • urgency (five-point scale); • straining (yes or no); • feeling of incomplete defecation (yes or no); • bloating or feeling of abdominal distension (five-point scale). • In Studies S241 A006 and S241.3.009, subjects completed the IBS-QOL Survey at Baseline (Day 1) and at the end of treatment. In Study S24 1.3.0 1 1, subjects completed the IBS-QOL Survey at Baseline (Day 1), at the end of the three-month treatment period, and at the end of rerandomized treatment.
(§2) Other secondary efficacy parameters for all three studies included: • Responder rate for the weekly diary questions on adequate relief at each month, where a responder for a month (monthly responder) was defined as a subject who answered the weekly question with “yes” at least twice for that month. The responder rate was the percentage of responders within a treatment group. The all-month responder rate for the weekly diary questions on adequate relief was also evaluated, where an all-month responder was defined as a subject who answered the weekly question with “yes” at least twice for each month. The all-month responder rate was the percentage of all-month responders within a treatment group; • Adequate relief rate for the weekly diary questions was calculated for each subject as the number of weekly assessments with adequate relief (“yes”) divided by the total number of weekly assessments; • Percentage of subjects with adequate relief for the weekly diary questions at each week; • Daily diary questions regarding abdominal pain/discomfort (five-point scale), stool consistency (seven-point scale), stool frequency (number of bowel movements each day), straining (yes or no), urgency (five-point scale), feeling of incomplete evacuation (yes or no), and bloating or feeling of abdominal distention (five-point scale); • QOL data assessed by the IBS-QOL questionnaire; and • Question to determine the interruption of activities.

[2] = clinical; conditions: human, in vivo; for half-life: T½
Procedure: Two randomized, double-blind, placebo controlled, balanced incomplete block design, crossover studies evaluated the single- and multiple-dose pharmacokinetics of oral cilansetron over a 8 mg to 32 mg dose range. In both studies, subjects were randomized to receive two of three treatments during 2 treatment periods. In one study (12 male and 13 female subjects, aged 23 to 36 years), subjects received 8 mg cilansetron, 16 mg cilansetron, or placebo, while in another study (12 males and 13 females, aged 23 to 41 years), subjects received 16 mg cilansetron, 32 mg cilansetron, or placebo. During each treatment period, subjects received a single dose of their assigned treatment on the first day, followed by a 3-day washout, after which they received the same treatment TID for 5 days.
There was a 5-6 day washout period between treatment periods. Doses on the mornings of pharmacokinetic days were administered under fasted conditions. Serial blood sampling and urine collection was performed up to 12 hours following morning dosing on the first day (single dose) and on the last multiple dosing day of each treatment period, and cilansetron pharmacokinetic parameters were evaluated.
In two randomized, double-blind, placebo controlled, balanced incomplete block design, crossover studies evaluating the single- and multiple-dose pharmacokinetics of oral cilansetron over a 8 mg to 32 mg dose range, subjects were randomized to receive two of three treatments during 2 treatment periods. In Study S.241.1.101; (12 male and 13 female subjects, aged 23 to 36 years), subjects received 8 mg cilansetron, 16 mg cilansetron, or placebo, while in Study S.24 1.1.102; (12 males and 13 females, aged 23 to 41 years), subjects received 16 mg cilansetron, 32 mg cilansetron, or placebo. During each treatment period, subjects received a single dose of their assigned treatment on the first day, followed by a 3-day washout, after which they received the same treatment TID for 5 days. There was a 5-6 day washout period between treatment periods. Doses on the mornings of pharmacokinetic days were administered under fasted conditions. Serial blood sampling and urine collection was performed up to 12 hours following morning dosing on the first day (single dose) and on the last multiple dosing day of each treatment period, and cilansetron pharmacokinetic parameters were evaluated.

[3] = tested on: diarrhea-predominant IBS subjects; assay type: in vivo, human; conditions: for Percentage of Subjects Who Worsened from Baseline: Daily Abdominal Pain / Percentage of Subjects Who Worsened from Baseline: Daily Urgency: S241.3.006, observed value
Excerpt: as §1, §2
The deterioration of effect analyses focus is to evaluate the percentage of subjects who worsened from Baseline. Clinical limits were set in order to capture a clinically meaningful number of subjects who worsened from Baseline. This clinical limit was also used in identifying those who improved from Baseline which led to a much larger percentage of subjects meeting this criterion. Percentages of subjects who improved from Baseline for these analyses are discussed in order to understand the context of the percentage of subjects who worsened.

[4] = both, human; for Fraction unbound ratio All Renal Groups Combined:Healthy / Fraction unbound ratio Mild:Healthy / Fraction unbound ratio Moderate:Healthy / Fraction unbound ratio Severe:Healthy: serum
Procedure: The ex vivo protein binding of cilansetron and its 4-hydroxy metabolites has been measured in serum samples collected in a multiple-dose study in healthy and renally impaired male and female subjects, aged 33-74 years. […] Healthy subjects were matched to renally-impaired subjects with respect to age, weight, gender, and smoking status. All subjects received oral cilansetron 2 mg TID on Days 1 to 5, and a single dose on the morning of Day 6.

[5] = tested on: diarrhea-predominant IBS subjects; assay: Study S241.3.011: interruption of activities assessment; assay type: in vivo, human
Excerpt: as §1, §2

[6] = clinical; conditions: both, human, in vivo, po, 8 mg
Procedure: The effect of hepatic impairment on the pharmacokinetics of cilansetron was evaluated in a multiple-dose, parallel group study in 14 healthy and 14 moderately to severely hepatically impaired male and female subjects, aged 41-70 years. Impaired subjects (Child-Pugh score 7 to 11) were matched to healthy subjects by age (±2 years), sex, menstrual status, and smoking history status. All subjects received oral cilansetron 8 mg TID on Days 1 to 5, and a single dose on the morning of Day 6. […] Blood samples were also collected at predose on Day 1, and at predose, 1 hour and 1.5 hours postdose on Day 6, for measurement of cilansetron protein binding in serum.

In the case of `Cc1nccn1C[C@H]1CCc2c(c3cccc4c3n2CCC4)C1=O` [Cilansetron, (R)-(−)-4,5,6,8,9,10-hexahydro-10-[(2-methyl-1H-imidazol-1-yl)methyl]-11H-pyrido-[3,2,1-jk]-carbazol-11-one], the “Subjects “not at all or rarely” bothered by IBS symptoms” value ([1]; Endpoint) is reported as 54%, the “Subjects worsened from Baseline, interruption of activities” value ([1]; Month 1) is reported as 5% and the “Percentage of Subjects Who Worsened from Baseline: Interruption of Activities” value (from here on “Percentage … of Activities”) ([1]; Month 1) is reported as 5%. For the same molecule, the “Percentage … of Activities” value ([1]; Month 3) was 3%, the “Percentage … of Activities” value ([1]; Month 6) was 2% and the half-life ([2]; both, 16 mg) was 1.35 h. For the same molecule, the Tmax ([2]; both, 32 mg) was 1 h, the AUC ([2]; both, 32 mg) was 451 ng·h/mL and the Cmax ([2]; both, 32 mg) was 216 ng/mL. It also gave a half-life ([2]; both, 32 mg) of 1.22 h, a Tmax ([2]; female, 32 mg) of 1 h and an AUC ([2]; female, 32 mg) of 405 ng·h/mL. For the same molecule, the Cmax ([2]; female, 32 mg) was 210 ng/mL, the half-life ([2]; female, 32 mg) was 1.08 h and the Tmax ([2]; female, po, 16 mg) was 1 h. For the same molecule, the Tmax ([2]; female, po, 32 mg) was 1 h, the AUC ([2]; female, po, 32 mg) was 433 ng·h/mL and the Cmax ([2]; female, po, 32 mg) was 270 ng/mL. For the same molecule, the half-life ([2]; female, po, 32 mg) was 1.01 h, the Tmax ([2]; male, 32 mg) was 1 h and the AUC ([2]; male, 32 mg) was 354 ng·h/mL. The Cmax ([2]; male, 32 mg) was 140 ng/mL, the half-life ([2]; male, 32 mg) was 1.4 h and the Tmax ([2]; male, po, 16 mg) was 1 h. It also gave a Tmax ([2]; male, po, 32 mg) of 1.5 h, an AUC ([2]; male, po, 32 mg) of 469 ng·h/mL and a Cmax ([2]; male, po, 32 mg) of 161 ng/mL. The half-life ([2]; male, po, 32 mg) was 1.44 h, the “Mean number of stools per day at end of treatment” value ([3]; 2 mg TID) was 2.45 stools per day and the “Percentage of Subjects Who Worsened from Baseline: Daily Abdominal Pain” value (“Percentage … Daily Abdominal Pain” for short) ([3]; Weeks 1-2, 2 mg TID) was 13%. The “Percentage of Subjects Who Worsened from Baseline: Daily Urgency” value (“Percentage … Daily Urgency” for short) ([3]; Weeks 1-2, 2 mg TID) was 5%, the “Percentage … Daily Abdominal Pain” value ([3]; Weeks 3-4, 2 mg TID) was 8% and the “Percentage … Daily Urgency” value ([3]; Weeks 3-4, 2 mg TID) was 5%. The “Percentage … Daily Abdominal Pain” value ([3]; Weeks 5-6, 2 mg TID) was 9%, the “Percentage … Daily Urgency” value ([3]; Weeks 5-6, 2 mg TID) was 8% and the “Percentage … Daily Abdominal Pain” value ([3]; Weeks 7-8, 2 mg TID) was 7%. For the same molecule, the “Percentage … Daily Urgency” value ([3]; Weeks 7-8, 2 mg TID) was 5%, the “Percentage … Daily Abdominal Pain” value ([3]; Weeks 9-10, 2 mg TID) was 8% and the “Percentage … Daily Urgency” value ([3]; Weeks 9-10, 2 mg TID) was 8%. For the same molecule, the “Percentage … Daily Abdominal Pain” value ([3]; Weeks 11-12, 2 mg TID) was 8%, the “Percentage … Daily Urgency” value ([3]; Weeks 11-12, 2 mg TID) was 8% and the “Subjects worsened from Baseline, daily abdominal pain” value ([3]; Weeks 1-2) was 13%. The “Subjects worsened from Baseline, daily urgency” value ([3]; Weeks 1-2) was 5%, the “Median rate of urgency-free days” value ([3]; end of treatment) was 0.27 and the “Bloating or abdominal distention score, change from Baseline at end of treatment” value ([3]; in vivo) was −0.48. For the same molecule, the “Daily abdominal pain/discomfort score, change from Baseline at end of treatment” value ([3]; in vivo) was −0.69, the “Daily stool consistency score, change from Baseline at end of treatment” value ([3]; in vivo) was −1.22 and the “Daily urgency score, change from Baseline at end of treatment” value ([3]; in vivo) was −0.87. For the same molecule, the “Feeling of incomplete evacuation, change from Baseline at end of treatment” value ([3]; in vivo) was −0.18, the “Mean stool consistency score at end of treatment” value ([3]; in vivo) was 4.10 and the “Mean straining, change from Baseline at end of treatment” value ([3]; in vivo) was 0.09. For the same molecule, the “Stools per day, change from Baseline at end of treatment” value ([3]; in vivo) was −0.98, the “Median rate of pain-free days” value ([3]; three-month period) was 0.19 and the “Median rate of urgency-free days” value ([3]; three-month period) was 0.32. For the same molecule, the “Protein bound on average” value [4] was 96.0-96.6%, the “Fraction unbound ratio All Renal Groups Combined:Healthy” value [4] was 81 (62, 105) % and the “Fraction unbound ratio Mild:Healthy” value [4] was 86 (61, 121) %. The “Fraction unbound ratio Moderate:Healthy” value [4] was 84 (54, 131) %, the “Fraction unbound ratio Severe:Healthy” value [4] was 73 (52, 102) % and the “Fraction unbound ratio All Renal Groups Combined:Healthy” value ([4]; 1 h) was 94 (76, 116) %. The “Fraction unbound ratio Mild:Healthy” value ([4]; 1 h) was 91 (70, 119) %, the “Fraction unbound ratio Moderate:Healthy” value ([4]; 1 h) was 105 (79, 140) % and the “Fraction unbound ratio Severe:Healthy” value ([4]; 1 h) was 87 (65, 115) %. The “Fraction unbound ratio All Renal Groups Combined:Healthy” value ([4]; […]) was 88 (70, 109) %, the “Fraction unbound ratio Mild:Healthy” value ([4]; […]) was 92 (69, 123) % and the “Fraction unbound ratio Moderate:Healthy” value ([4]; […]) was 90 (66, 123) %. The “Fraction unbound ratio Severe:Healthy” value ([4]; […]) was 81 (59, 110) %, the “Subjects “not at all or rarely” bothered, rerandomization Endpoint” value (from here on “Subjects “not … rerandomization Endpoint”) ([5]; C/C) was 54% and the “Subjects “not … rerandomization Endpoint” value ([5]; C/P) was 37%. The “Subjects “not at all or rarely” bothered by IBS symptoms” value ([5]; Endpoint, 3-month period) was 46%, the “Subjects “not … rerandomization Endpoint” value ([5]; P/C) was 50% and the AUC ([6]; AUC(0-τ), Geom. LS Mean) was 334 ng·h/mL. For the same molecule, the Cmax [6] was 94.4 ng/mL, the Cmax ([6]; Geom. LS Mean) was 83.9 ng/mL and the Tmax ([6]; Tmax) was 0.75 h. The half-life ([6]; T½) was 8.16 h and the Vd/F ([6]; Vz/F) was 388 L.
